Measurements: patent publication US20240373847A1, “HERBICIDAL MALONAMIDES” (BASF SE, priority 2021, published 2024)

How the values were obtained:
Type in all cases: in vivo
[1] = tested on: Amaranthus retroflexus (AMARE); experiment: greenhouse test, post-emergence treatment; conditions: 1.000 kg/ha, post-emergence method; scale from 0 to 100
Excerpt: (§1) The culture containers used were plastic flowerpots containing loamy sand with approximately 3.0% of humus as the substrate. The seeds of the test plants were sown separately for each species.
(§2) For the post-emergence treatment, the test plants were first grown to a height of 3 to 15 cm, depending on the plant habit, and only then treated with the active ingredients which had been suspended or emulsified in water. For this purpose, the test plants were either sown directly and grown in the same containers, or they were first grown separately as seedlings and transplanted into the test containers a few days prior to treatment.
(§3) Depending on the species, the test plants were kept at 10-25° C. or 20-35° C., respectively.
(§4) The test period extended over 2 to 4 weeks. During this time, the test plants were tended, and their response to the individual treatments was evaluated.
(§5) Evaluation was carried out using a scale from 0 to 100. 100 means no emergence of the test plants, or complete destruction of at least the aerial moieties, and 0 means no damage, or normal course of growth. A good herbicidal activity is given at values of 70 to <90 and a very good herbicidal activity is given at values of 90 to 100.
(§6) The test plants used in the greenhouse experiments were of the following species: […]

[2] = tested on: Apera spica-venti (APESV); experiment: greenhouse test, pre-emergence treatment; conditions: 0.125 kg/ha, pre-emergence method; scale from 0 to 100
Excerpt: as §1
(§7) For the pre-emergence treatment, the active ingredients, which had been suspended or emulsified in water, were applied directly after sowing by means of finely distributing nozzles. The containers were irrigated gently to promote germination and growth and subsequently covered with transparent plastic hoods until the test plants had rooted.
(§8) This cover caused uniform germination of the test plants, unless this had been impaired by the active ingredients.
as §3, §4, §5, §6

[3] = tested on: Amaranthus retroflexus (AMARE); experiment: greenhouse test, pre-emergence treatment; conditions: pre-emergence method, scale from 0 to 100
Excerpt: as §1, §7, §8, §3, §4, §5, §6

Setaria viridis (SETVI) [4] = experiment: greenhouse test, post-emergence treatment; conditions: 1.000 kg/ha, post-emergence method; scale from 0 to 100
Excerpt: as §1, §2, §3, §4, §5, §6

[5] = tested on: Echinocloa crus-galli (ECHCG); experiment: greenhouse test, pre-emergence treatment; conditions: 0.125 kg/ha, pre-emergence method; scale from 0 to 100
Excerpt: as §1, §7, §8, §3, §4, §5, §6

Setaria faberi (SETFA) = experiment: greenhouse test, pre-emergence treatment; conditions: 0.125 kg/ha, pre-emergence method; scale from 0 to 100
Excerpt: as §1, §7, §8, §3, §4, §5, §6

Setaria viridis (SETVI) [6] = experiment: greenhouse test, pre-emergence treatment; conditions: 0.250 kg/ha, pre-emergence method; scale from 0 to 100
Excerpt: as §1, §7, §8, §3, §4, §5, §6

[7] = tested on: Echinocloa crus-galli (ECHCG); experiment: greenhouse test, post-emergence treatment; conditions: 0.500 kg/ha, post-emergence method; scale from 0 to 100
Excerpt: as §1, §2, §3, §4, §5, §6

[8] = tested on: Abutilon theophrasti (ABUTH); experiment: greenhouse test, pre-emergence treatment; conditions: 0.125 kg/ha, pre-emergence method; scale from 0 to 100
Excerpt: as §1, §7, §8, §3, §4, §5, §6

[9] = tested on: Lolium multiflorum (LOLMU); experiment: greenhouse test, pre-emergence treatment; conditions: 1.000 kg/ha, pre-emergence method; scale from 0 to 100
Excerpt: as §1, §7, §8, §3, §4, §5, §6

[10] = tested on: Digitaria sanguinalis (DIGSA); experiment: greenhouse test, pre-emergence treatment; conditions: 1.000 kg/ha, pre-emergence method; scale from 0 to 100
Excerpt: as §1, §7, §8, §3, §4, §5, §6

Q: With `CCC(C(=O)Nc1cc(F)cc(F)c1)C(=O)NC(C)CC(=O)O` (stereo not shown) [I.144] as the compound, how does the “herbicidal activity against AMARE” value [1] read?
A: The value was “good herbicidal activity (A good herbicidal activity is given at values of 70 to <90)”.

Q: How did the “herbicidal activity against APESV” value [2] turn out when `CCc1cccc(NC(=O)C(CC)C(=O)NC(C)CCC(=O)OC)c1` (stereo not shown) [I.117] was run?
A: The value was “very good herbicidal activity (a very good herbicidal activity is given at values of 90 to 100)”.

Q: For `COC(=O)CC(C)NC(=O)C(C)C(=O)Nc1cc(Cl)cc(Cl)c1` (stereo not shown) [I.1], which “herbicidal activity against AMARE” value ([3]; 0.500 kg/ha) is on record?
A: Its value is “good herbicidal activity (A good herbicidal activity is given at values of 70 to <90)”.

Q: How did the “herbicidal activity against SETVI” value (Setaria viridis (SETVI) [4]) turn out when `CCC(C(=O)Nc1cc(C)cc(F)c1)C(=O)NC(C)CCC(=O)O` (stereo not shown) [I.136] was run?
A: The value was “good herbicidal activity (A good herbicidal activity is given at values of 70 to <90)”.

Q: Which results are given for `CCS(=O)(=O)NC(=O)CC(C)NC(=O)C(C)C(=O)Nc1cc(C)cc(F)c1` (stereo not shown) [I.14]?
A: herbicidal activity against AMARE ([3]; 0.125 kg/ha): very good herbicidal activity (a very good herbicidal activity is given at values of 90 to 100); herbicidal activity against ECHCG [5]: good herbicidal activity (A good herbicidal activity is given at values of 70 to <90)

Q: `CCC(C(=O)Nc1cc(Cl)cc(Cl)c1)C(=O)N[C@H]1C=C[C@@H](C(=O)OC)C1` (stereo partly drawn) [I.90, methyl (1S,4R)-4-[2-[(3,5-dichlorophenyl)carbamoyl]butanoylamino]cyclopent-2-ene-1-carboxylate] was tested. Which “herbicidal activity against SETFA” value (Setaria faberi (SETFA)) did it give?
A: The value was “good herbicidal activity (A good herbicidal activity is given at values of 70 to <90)”.

Q: Which “herbicidal activity against SETVI” value (Setaria viridis (SETVI) [6]) does the source give for `COC(=O)C1C=CC(NC(=O)C(C)C(=O)Nc2cc(F)cc(F)c2)C1` (mixture of isomers) [I.153] here?
A: The value was “very good herbicidal activity (a very good herbicidal activity is given at values of 90 to 100)”.

Q: For `CCC(C(=O)Nc1cccc(OC(F)(F)F)c1)C(=O)NC(C)CCC(=O)O` (stereo not shown) [I.128], which “herbicidal activity against AMARE” value ([3]; 1.000 kg/ha) is on record?
A: The value was “very good herbicidal activity (a very good herbicidal activity is given at values of 90 to 100)”.

Q: With `COC(=O)CC(C)NC(=O)C(C(=O)Nc1cc(Cl)cc(Cl)c1)C1CC1` (stereo not shown) [I.3] as the compound, how does the “herbicidal activity against ECHCG” value [7] read?
A: Its value is “good herbicidal activity (A good herbicidal activity is given at values of 70 to <90)”.

Q: How did the “herbicidal activity against ABUTH” value [8] turn out when `CONC(=O)CC(C)NC(=O)C(C)C(=O)Nc1cc(F)cc(F)c1` (stereo not shown) [I.79] was run?
A: The value was “good herbicidal activity (A good herbicidal activity is given at values of 70 to <90)”.

Q: How did the “herbicidal activity against LOLMU” value [9] turn out when `CCC(C(=O)Nc1cccc(F)c1)C(=O)N[C@H]1C=C[C@@H](C(=O)O)C1` (stereo partly shown) [I.138] was run?
A: The value was “good herbicidal activity (A good herbicidal activity is given at values of 70 to <90)”.

Q: And the “herbicidal activity against DIGSA” value [10]?
A: The value was “good herbicidal activity (A good herbicidal activity is given at values of 70 to <90)”.
